Laboratory results: article PMC5077990, “P53 activation inhibits all types of hematopoietic progenitors and all stages of megakaryopoiesis” (Oncotarget, 2016)
Entries after “also recorded” stand apart in the source; their conditions may differ. Where two headings read alike, the source gives them in different places.

Legend:
Assay type in all cases: cell-based, human
[1] = test system: CFU-GM (Colony Forming Unit-Granulocyte Macrophage) progenitors from CD34+ cells; experiment: Colony assay in methylcellulose, CFU-GM; conditions: Homo sapiens, CFU-GM
Protocol: CD34^+cells were obtained from leukapheresis samples after mobilization of donors after informed consent in agreement with our Institute Ethic Committee (Assistance Publique des Hôpitaux de Paris) and in accordance with the Declaration of Helsinki. CD34^+cells were isolated by a positive selection using an immunomagnetic cell sorting system (AutoMacs; Miltenyi Biotec, Bergisch Gladbach, Germany). 500 to 1000 normal CD34^+cells were plated either in 1% methylcellulose assay (StemCells technologies, Vancouver, Canada) to quantify erythroid (BFU-E) and granulo-monocytic (CFU-GM) progenitors or in serum-free fibrin clot assay for quantification of MK progenitors (CFU-MK) in the absence or presence of various concentration of SAR405838 or MI-219. Cultures in methylcellulose were stimulated by addition of human recombinant growth factors: G-CSF (20 ng/mL), IL-3 (10 ng/mL) SCF (25 ng/mL, Biovitrum AB, Stockholm, Sweden), IL-6 (10 ng/mL), FLT3 (10 ng/mL) and human EPO (1 U/mL). Cultures in fibrin clot were stimulated with 10 ng/mL TPO (Kirin Brewery, Tokyo, Japan) and 25 ng/mL SCF. […] CFU-MK colonies were enumerated at day 12 after labeling by an indirect immuno-alkaline phosphatase staining technique using an anti-CD41a monoclonal antibody (MoAb; Becton Dickinson, le Pont de Claix, France; clone HIP8), as previously described.

[2] = test system: p53 target genes (MDM2, PUMA, P21) in CD34+ cells; experiment: qRT-PCR of p53 target genes in CD34+ cells; conditions: CD34+ cells cultured one day with TPO and SCF; doses 0.75 M, 1.5 μM, 2.5 μM and 5 μM
Protocol: To investigate the impact of p53 stabilization on hematopoietic progenitors, CD34^+ cells were cultured for one day in serum-free medium with TPO and SCF in the presence of the MDM2 antagonist SAR405838 before quantifying the p53 target genes by qRT-PCR.
Figure 1 Effects of SAR405838 on CD34+ progenitors A. Dose-effect of SAR405838 on p53 target genes by qRT-PCR. CD34^+ cells were treated or not with SAR405838 at various doses ([…], 1.5 μM, 2.5 μM and 5 μM). The expression of P53 and its targets (MDM2, PUMA, P21) were quantified by qRT-PCR related to PPIA. Results are the mean ± SEM of 2 independent experiments in duplicate. B, C, D. Cells were seeded in methylcellulose (B, C) or in fibrin clot (D) in the presence of MI-219 or SAR405838 to assay the number of BFU-E, CFU-GM and CFU-MK progenitors. Results are presented as percentage compared to control. Results represent the mean of 3 experiments for BFU-E and CFU-GM and 3 experiments for CFU-MK made in triplicate. * represents statistical significance using student t test (* P<0.05; **P<0.01; ***P<0.001).
PCRs were carried out in the ABI Prism GeneAmp 5700 (Perkin-Elmer) using the Power SYBR-Green PCR Master Mix (ABI) containing the specific primers. The expression levels of all genes were calculated relatively to HPRT or to PPIA housekeeping gene.

[3] = test system: Day 6 megakaryoblasts (ploidization); experiment: MK ploidy by flow cytometry (CD41/CD42/vital Hoechst staining); conditions: day 6 megakaryoblasts treated 72 hours, analysed day 9; SAR405838 at 1 μM; untreated control 4.4 N
Protocol: First, we investigated if MDM2 inhibitors affect MK ploidization. SAR405838 induced a significant reduction in the mean ploidy (3.0 N at the dose of 1 μM versus 4.4 N for untreated control or for MI-219 treatment) (Supplementary Figure S1). page 1: P53 activation inhibits all types of hematopoietic progenitors and all stages of megakaryopoiesis SUPPLEMENTARY FIGURE Supplementary Figure S1: Effect of SAR405838 on polyploidization. Day 6 megakaryoblasts were treated for 72 hours with various doses of MI-219 or SAR405838. At day 9, ploidy was analyzed by flow cytometry using a CD41/CD42/vital Hoechst staining. N represents the mean ploidy. As shown, SAR405838 induced a significant reduction in the mean ploidy (3.0N at the dose of 1μM versus 4.4N for control or for MI-219 treatment). The Figure illustrates a representative experiment in triplicate. Two other experiments in triplicate gave similar results. […]

[4] = test system: day 10-MKs (proplatelet formation); experiment: Proplatelet formation assay
Protocol: Then, we explored the effects of p53 stabilization on PPT formation (the step before platelet release). […] To confirm that this was due to p53 stabilization, we knocked-down p53 with 2 shRNA showing a decrease in P53 RNA and protein levels (Figure 7B/7C) and reduced expression of p53 targets (Figure 7D).
Figure 7 Effects of p53 stabilization on PPT formation A. Percentage of proplatelet-forming day 10-MKs after incubation with 0.5 or 1 μM of SAR405838 or MI-219. […] A total of 200 cells per well were counted during 4 days. Error bars in histograms represent the SD of one representative experiment performed in triplicate wells. Similar results were obtained in 3 repeated experiments. * represents statistical significance (**P<0.01). […] D. p53, MDM2, BCL-XL, BAX and p21 protein levels were analyzed in GFP^+/CD41^+ sorted cells by Western blot (at days 10 and 13 of culture). β-actin was used as loading control. […] A total of 200 cells per well were counted during 4 days (from day 11 to day 14). […]
CD41^+GFP^+ MKs were sorted at day 8 of culture and plated in 96-well plates at a concentration of 2,000 cells/well in serum-free medium containing TPO, and quantification of PPT bearing MKs was performed as previously described. […] A total of 200 cells per well were counted during 4 days. […]

SMILES: CC(C)(C)C[C@@H]1N[C@@H](C(=O)N[C@H]2CC[C@H](O)CC2)[C@H](c2cccc(Cl)c2F)[C@]12C(=O)Nc1cc(Cl)ccc12 [SAR405838]
- IC50 ([1]; 72 h, CD34+ cells treated 3 days, washed, then plated in colony assay, read-out: IC50, reduction of CFU-GM progenitors): ~2000 nM
- IC50 ([1]; CD34+ cells seeded in methylcellulose in the presence of compound, compared to untreated control, read-out: dose inducing a 50% reduction of CFU-GM numbers): 500 to 1000 nM
- MDM2, PUMA and P21 expression (qRT-PCR related to PPIA) [2]: dose-dependent effect
- mean ploidy [3]: 3.0 N
- PPT (proplatelet) formation ([4]; 0.5 μM): inhibited; also recorded: drastically decreased
- PPT (proplatelet) formation ([4]; 1 μM): completely abrogated; also recorded: completely abolished
